The results in this text go back to patent publication US20040180417A1, “Secretase/sheddase with asp-ase activity on the beta-site app-cleaving enzyme (bace, asp2, memepsin2)” (priority 2000, published 2004).

One assay has as its system BACE secretase/sheddase. Description: BACE secretase/sheddase activity (BACE C-terminal fragments) in Neuro 2a cells. It counts as cell-based. Here is the method:
(§1) FIG. 8: [A] Neuro 2a APPSW cells were transiently transfected with cDNA for [BACEF]FG. Cells were labeled with ^35S-Met for 3 hrs in the absence (−, DMSO control) or presence of 100 uM of a substrate based γ-secretase inhibitor (+γ-sec I, DFK-167 Enzyme Systems products). Cell lysates were immunoprecipitaed with FG antibodies, reduced and analyzed by SDS-PAGE on 8% tricine gels. Cell lysates [B] and media [C] were immunoprecipited with antibody APP711-03 and analyzed by SDS-PAGE on 8% tricine gels. [D] Media was immunoprecipited with the 1-40 Aβ antibody and analyzed on a 14% tricine gel. The exposure time was 3 days.
Transfections and biosynthetic analyses—All transfections were done on 2−4×10^5 HK293 cells using Effectene (Qiagen) and a total of 1-1.5 μg of BACE contruct cDNAs subcloned into the vector pIRES2-EGFP. Two days post-transfection the cells were washed and then pulse-incubated for various times with either 200 μCi/ml of [^35S]Met; 400 μCi/ml Na2[^35SO4], [^3H]Leu, [^3H]Arg, [^3H]Ser; or 1 mCi/ml [^3H]palmitate EN) (20). Pulse-chase experiments with [^35S]Met were carried out as previously described (21). Cells were lysed in immunoprecipitation buffer [150 mM NaCl, 50 mM Tris-HCl pH 6.8, 0.5% NP40, 0.5% sodium deoxycholate and a protease inhibitor cocktail (Roche Diagnostics). The lysates and media were then prepared for immunoprecipitations as reported (22). The monoclonal antibodies used were directed against either the FL (Flag-M2; 1:500 dilution; Stratagene) or V5 (1:1000 dilution; Invitrogen) epitopes. Rabbit polyclonal antisera included those directed against aa 1-16 of human Aβ (produced in laboratory, dilution 1:200); anti-β-amyloid, recognizing mostly the C-terminal part of Aβ40 (A8326, dilution 1:200, Sigma); and FCA 18, recognizing all peptides starting with the Asp at the N-terminus of Aβ (23). Immunoprecipitates were resolved on SDS-PAGE (either 8% or 14% tricine gels) and autoradiographed (21). All PC inhibitor proteins were cloned in pcDNA3 (Invitrogen), including those of α1-PDX (8); the preprosegments of furin, PC7 (24), PC5 (25), SKI-1 (26,27); and wild type (α2-M) and furin-site mutated (α2-MG-F) α2-macroglubulin (28).
C-terminal processing of BACE—In order to further characterize the nature of apparent C-terminal cleaved BACE fragments (FIG. 5C), the analysis of [BACEF]FG fragments immunoprecipitated with antiserum to Flag from HK293 cells were repeated. In addition to the 6 kDa fragment noted in FIG. 5C, fragments of 34, 15, and 11 kDa are apparent (FIG. 7). […] In addition, the intensity of the 11 and 6 kDa bands appear to diminish. It was expected that some of these BACE fragments would be disulfide linked, since it is known that the six Cys residues in the ectodomain form three intramolecular disulfide linkages (Cys^216-Cys^420, Cys^278-Cys^443, Cys^330-Cys^380) (41). The 34, 15, 11 and 6 kDa BACE fragments are also apparent when [BACEF]FG is expressed in Neuro 2a cells (FIG. 8). The relative levels of the 11 kDa fragment compared to the other cleaved fragments of BACE appear lower in Neuro 2a compared to HK293 cells. In any case, the sites of ectodomain cleavage are apparently the same in the two cell types. […] The significance of an apparent reduction in the level of the 6 kDa BACE fragment is unknown.

The test system of a further assay is γ-secretase. Description: βAPP processing (Aβ, C99) in Neuro 2a APPSW cells. Format: cell-based. The note with it: 100 uM inhibitor, 3 hrs. Here is the method: as §1
C-terminal processing of BACE—In order to further characterize the nature of apparent C-terminal cleaved BACE fragments (FIG. 5C), the analysis of [BACEF]FG fragments immunoprecipitated with antiserum to Flag from HK293 cells were repeated. In addition to the 6 kDa fragment noted in FIG. 5C, fragments of 34, 15, and 11 kDa are apparent (FIG. 7). […] In addition, the intensity of the 11 and 6 kDa bands appear to diminish. It was expected that some of these BACE fragments would be disulfide linked, since it is known that the six Cys residues in the ectodomain form three intramolecular disulfide linkages (Cys^216-Cys^420, Cys^278-Cys^443, Cys^330-Cys^380) (41). The 34, 15, 11 and 6 kDa BACE fragments are also apparent when [BACEF]FG is expressed in Neuro 2a cells (FIG. 8). […]

Assay [1] relates to proBACE processing by PC-like enzyme. Description: proBACE processing in HK293 cells co-expressing [BACEF]FG/V5 and PC-inhibitors (pulse-chase, immunoprecipitation, SDS-PAGE). Format: cell-based, human. Conditions: 15 min [35S]Met pulse, chase 1 h or 2h; FG epitope; α1-PDX co-transfected or BFA present. Here is the method: FIG. 1: HK293 cells were transiently co-transfected with either ([BACEF]FG/V5+BDNF) [control, CTL] (A,C) or ([BACEF]FG/V5+α1-PDX) (B,D) cDNAs. Two days post-transfections the cells were pulse-labeled in the absence or presence of […] BFA for 15 min with [^35S]Met and then chased for 1 or 2h. Cell lysates were immunoprecipitated with either the FG or V5 mAbs and analysed by SDS-PAGE on 8% tricine gels. The migration position of the 53 kDa molecular mass standard and those of proBACE (pBACE) and BACE are emphasized.
FIG. 2: [A] HK293 cells were transiently co-transfected with cDNAs coding for either ([BACEF]FG/V5+BDNF) [control, CTL], ([BACEF-R45A]FG/V5+BDNF) or ([BACEF-R42A]FG/V5+BDNF) or ([BACEF]FG/V5+either α1-PDX, the prosegments of furin, PC5, PC7, SKI-1, furin-mutated (α2M-F) or wild type (α2M) α2-macroglobulin. The cells were pulse-labeled for 20 min with [^35S]Met and then chased for 90 min. Cell lysates were immunoprecipitated with the FG mAb and analysed by SDS-PAGE on 8% tricine gels. [B] HK293 cells were transiently co-transfected with cDNAs coding for either ([BACEF]FG/V5+BDNF) [CTL], ([BACEF]FG/V5+furin) or ([BACEF]FG/V5+α1-PDX). The cells were then pulse-labeled for 2h with Na2[^35SO4]. Cell lysates were immunoprecipitated with the FG or V5 mAbs and analysed by SDS-PAGE on 8% tricine gels. […]

In the next assay the test system is proBACE. Description: Exit of proBACE from the ER in HK293 cells (3h [35S]Met pulse). Format: cell-based, human. The note with it: 90 μM BFA or 250 nM bafilomycin, 37° C. Here is the method:
FIG. 5: HK293 cells were transiently transfected with cDNAs coding for either [A,B] (BDNF+βAPPSW) [CTL] or ([BACEF]FG+βAPPSW), [C] [BACEF]FG or [BACES]FG. The cells were pulse-labeled for 3h with [^35S]Met at either 37° C. in the absence or presence of 90 μM BFA or 250 nM bafilomycin or at 20° C. Cell lysates were immunoprecipitated with either [A] the FG mAb or [B] the 1-16 Aβ antibody, and analysed by SDS-PAGE on 8% tricine gels. [C] FG antibody, and analysed by SDS-PAGE on 8% tricine gels. The arrowhead point to an ˜6 kDa intracellular stub of BACEF.
Transfections and biosynthetic analyses—All transfections were done on 2−4×10^5 HK293 cells using Effectene (Qiagen) and a total of 1-1.5 μg of BACE contruct cDNAs subcloned into the vector pIRES2-EGFP. Two days post-transfection the cells were washed and then pulse-incubated for various times with either 200 μCi/ml of [^35S]Met; 400 μCi/ml Na2[^35SO4], [^3H]Leu, [^3H]Arg, [^3H]Ser; or 1 mCi/ml [^3H]palmitate EN) (20). Pulse-chase experiments with [^35S]Met were carried out as previously described (21). Cells were lysed in immunoprecipitation buffer [150 mM NaCl, 50 mM Tris-HCl pH 6.8, 0.5% NP40, 0.5% sodium deoxycholate and a protease inhibitor cocktail (Roche Diagnostics). The lysates and media were then prepared for immunoprecipitations as reported (22). […]

A further assay concerns the target T1, BACE (Mus musculus, UniProt P56818).
T1 construct: TDEST454; FLAG (DYKDDDDK), inserted just after the signal peptide cleavage site (after Ala19) (N); made in house; host or cells: HK293 cells, transiently transfected; 10-20 fold-concentrated medium
As to the kind of experiment: In vitro β-secretase activity on a 20 aa synthetic βAPPSW peptide (RP-HPLC). Format: biochemical.

The next assay has as its system [proBACES]FG/V5. As to the kind of experiment: In vitro PC-mediated processing of proBACES (Western blot). It counts as biochemical, mouse. The note with it: equivalent hydrolytic activities of PCs, 1-4 hours incubation.

Starred links: 1 amine or outer side, 2 acyl side, 3 side chain; linkers in the order of their positions; H or OH if unused. Non-standard residues stand in square brackets, D forms with d. Residues, ends and D or L forms follow the SMILES beside them. *: point of attachment. X1 = CC(N[*:1])C(=O)C(F)(F)C(=O)[*:2]; Cbz = O=C(OCc1ccccc1)*; Boc = CC(C)(C)OC(=O)*; CH2F = FC* Bounds are passed on as bounds.

T1 sequence (P56818 46-457 limits assumed): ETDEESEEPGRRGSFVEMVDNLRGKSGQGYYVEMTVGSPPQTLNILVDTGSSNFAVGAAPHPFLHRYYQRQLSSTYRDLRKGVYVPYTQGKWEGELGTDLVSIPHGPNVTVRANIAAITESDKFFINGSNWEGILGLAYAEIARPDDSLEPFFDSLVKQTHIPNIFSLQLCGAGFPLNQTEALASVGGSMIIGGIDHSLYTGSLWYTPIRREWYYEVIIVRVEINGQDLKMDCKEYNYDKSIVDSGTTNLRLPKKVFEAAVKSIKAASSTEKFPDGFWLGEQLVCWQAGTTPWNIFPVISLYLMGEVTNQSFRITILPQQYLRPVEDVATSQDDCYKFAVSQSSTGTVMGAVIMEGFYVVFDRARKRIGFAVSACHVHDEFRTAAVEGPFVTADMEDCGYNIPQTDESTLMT

On to `CCC(C)C(NC(=O)C(NC(=O)OC(C)(C)C)C(C)C)C(=O)NC(C)C(=O)C(F)(F)C(=O)NC(C(=O)NC(C(=O)OC)C(C)CC)C(C)C` (stereo not shown) (Boc-VI[X1]VI-OMe; configuration not given here), for which the “levels of BACE fragments (34, 15 and 11 kDa)” value in the assay on BACE secretase/sheddase (Neuro 2a APPSW cells transfected with [BACEF]FG, 100 uM inhibitor, 3 hrs) was “largely unchanged”. For the same molecule, the “inhibition of BACE secretase/sheddase activity” value in the assay on BACE secretase/sheddase (Neuro 2a cells) is given as “does not inhibit”. Further, the “cellular C99 levels” value in the assay with γ-secretase (cell lysates) is recorded as “elevates”. Further, in the assay with γ-secretase (media), the Aβ formation result is on record as “completely inhibits”.
For the molecule `C[C@H]1CCC/C=C/[C@@H]2C[C@H](O)C[C@H]2[C@H](O)/C=C/C(=O)O1` [BFA, brefeldin A], the “72 kDa proBACE form” value in assay [1] was “not apparent”. Besides, in the assay on proBACE, the “escape of 66 kDa proBACE from the ER” value is on record as “prevented”.
Take `CNC(=O)[C@H](Cc1c[nH]c2ccccc12)NC(=O)[C@@H](CC(=O)NO)CC(C)C` [GM6001]: the “inhibition of BACE secretase/sheddase activity” value in the assay on BACE secretase/sheddase (Neuro 2a cells) was “did not inhibit”.
Regarding `CC(C)C[C@H](CC(=O)NO)C(=O)N[C@@H](Cc1ccc2ccccc2c1)C(=O)N[C@@H](C)C(=O)NCCN` [TAPI-1], in the assay with BACE secretase/sheddase (Neuro 2a cells), the “inhibition of BACE secretase/sheddase activity” value is recorded as “did not inhibit”.
On to `COC(=O)C[C@H](NC(=O)[C@H](C)NC(=O)[C@@H](NC(=O)OCc1ccccc1)C(C)C)C(=O)CF` [Z-Val-Ala-Asp(OMe)-CH2F] (Cbz-Val-Ala-Asp(OMe)-CH2F), for which the “effect on BACE secretase/sheddase activity” value in the assay on BACE secretase/sheddase (Neuro 2a cells, 100 uM) is given as “had no effect”.
As to `CO/C1=C\C(C)=C\[C@@H](C)[C@@H](O)[C@@H](C)C/C(C)=C/C=C/[C@H](OC)[C@@H]([C@@H](C)[C@@H](O)[C@H](C)[C@@]2(O)C[C@@H](O)[C@H](C)[C@@H](C(C)C)O2)OC1=O` [bafilomycin], in the assay with proBACE, the “escape of 66 kDa proBACE from the ER” value is reported as “retarding effect”.
With “THLGIRLPLRSGLAGPPLGLRLPR [proBACE 22-45]”, the “inhibition of the Swedish peptide substrate cleavage” value with BACE (20 μM peptide pre-incubated with active BACE, substrate at 10 μM) was 20%.
In the case of furin, in the assay with BACE (pre-incubation of BACES-containing media with furin, four separate experiments), the “increase in the level of BACE activity” value is listed as 50±3%. In addition, the “time to completely process proBACE into BACE” value in assay [proBACES]FG/V5 is at most 2 h.
